In patent publication US11147272B2, “Pyridone compounds and agricultural and horticultural fungicides comprising the same as active ingredients” (MITSUI CHEMICALS AGRO, INC., priority 2017, dated 2021):

How the values were obtained:
[1] = test system: Blumeria graminis f. sp. hordei; assay: Test Example D: Powdery mildew on barley; settings: Powdery mildew on barley; class of control value
Botrytis cinerea = assay: Test Example B: Gray mold on tomato; settings: Gray mold on tomato; class of control value
Magnaporthe grisea = assay: whole plant or invertebrate; type: in vivo; settings: Blast on rice; class of control value
Puccinia recondita = assay: Test Example E: Brown rust on wheat; type: in vivo; settings: Brown rust on wheat; class of control value
Phytophthora infestans = assay: whole plant or invertebrate; type: in vivo; settings: Late blight on tomato; class of control value
Alternaia brassicicola = assay: Test Example C: Alternaria sooty spot on cabbage; type: in vivo; settings: Alternaria sooty spot on cabbage; class of control value
Source text: Seeds of a test plant (cabbage variety: Shikidori) were planted and cultivated until the cotyledons extended.
<Control Value> Control value=100{1−(n/3)}

[2] = test system: Colletotrichum orbiculare; assay: Test Example H: Anthracnose on cucumber; settings: Anthracnose on cucumber (Sagami Hanjiro); 250 ppm spray, 2.5 ml/pot; assessed 6 to 10 days after inoculation
Description: Seeds of a test plant (cucumber variety: Sagami Hanjiro) were planted and cultivated until the first leaf appeared. In the test, the inventive compounds were dissolved into dimethyl sulfoxide-methanol mixture solution (volume ratio: 9/1), and the resultant solutions were diluted with well water to a concentration of 250 ppm to obtain the drug solutions. The drug solutions were sprayed to the test plant (2.5 ml/pot). After the drug solutions dried, a conidial suspension (2-4×10^5 conidia/ml) of Colletotrichum orbiculare was inoculated to the plant by spraying. After the inoculation, the plant was kept in a mist chamber at room temperature of 20 to 23° C. for about 24 hours to promote the onset of disease. The degrees of disease development were investigated 6 to 10 days after the inoculation, and the effectiveness of the drug solutions was evaluated.
(§1) In Test Examples described above, the degrees of disease development were evaluated in increments of 0.05 from 0 (as no incidence of disease) to 3 (as the degree of disease development in an untreated plant group). Further, control values were calculated using the following equation based on the degree of disease development.
(§2) n=Degree of disease development in each treated group
In the table, H: more than 50% control value, L: 50% or less control value, and nt: not tested.

Plasmopara viticola = assay: Test Example G: Downy mildew on vine; settings: Downy mildew on vine (Neomuscat); 250 ppm spray, 2.5 ml/pot; assessed 7 to 10 days after inoculation
Description: Seeds of a test plant (grape variety: Neomuscat) were planted and cultivated until three to four first leaves appeared. In the test, the inventive compounds were dissolved into dimethyl sulfoxide-methanol mixture solution (volume ratio: 9/1), and the resultant solutions were diluted with well water to a concentration of 250 ppm to obtain the drug solutions. The drug solutions were sprayed to the test plant (2.5 ml/pot). After the drug solutions dried, a zoosporangia suspension (1-2×10^4 zoosporangia/ml) of Plasmopara viticola was inoculated to the plant by spraying. After the inoculation, the plant was kept in a mist chamber at room temperature of 20° C. for about 24 hours to promote the onset of disease. The degrees of disease development were investigated 7 to 10 days after the inoculation, and the effectiveness of the drug solutions was evaluated.
as §1, §2

C#CCOc1cccc(F)c1-c1c(CC(C)C)cc(Cl)c(=O)n1CC [compound 102]
Test D control value class [1]: H (more than 50% control value) | Test B control value class (Botrytis cinerea): H (more than 50% control value) | Test A control value class (Magnaporthe grisea): H (more than 50% control value) | Test E control value class (Puccinia recondita): H (more than 50% control value) | Test F control value class (Phytophthora infestans): L (50% or less control value) | Test C control value class (Alternaia brassicicola): H (more than 50% control value) | Test H control value class [2]: H (more than 50% control value) | Test G control value class (Plasmopara viticola): H (more than 50% control value)

CCn1c(-c2c(F)cccc2OCOC)c(CC(C)C)cc(Cl)c1=O [compound 103]
Test D control value class [1]: H (more than 50% control value) | Test B control value class (Botrytis cinerea): H (more than 50% control value) | Test A control value class (Magnaporthe grisea): H (more than 50% control value) | Test E control value class (Puccinia recondita): H (more than 50% control value) | Test F control value class (Phytophthora infestans): L (50% or less control value) | Test C control value class (Alternaia brassicicola): H (more than 50% control value) | Test H control value class [2]: H (more than 50% control value) | Test G control value class (Plasmopara viticola): H (more than 50% control value)

C=CCOc1cccc(F)c1-c1c(CC(C)C)cc(Cl)c(=O)n1CC [compound 104]
Test D control value class [1]: H (more than 50% control value) | Test B control value class (Botrytis cinerea): H (more than 50% control value) | Test A control value class (Magnaporthe grisea): H (more than 50% control value) | Test E control value class (Puccinia recondita): L (50% or less control value) | Test F control value class (Phytophthora infestans): L (50% or less control value) | Test C control value class (Alternaia brassicicola): L (50% or less control value) | Test H control value class [2]: H (more than 50% control value) | Test G control value class (Plasmopara viticola): H (more than 50% control value)

CCn1c(-c2c(F)cccc2OCSC)c(CC(C)C)cc(Cl)c1=O [compound 105]
Test D control value class [1]: L (50% or less control value) | Test B control value class (Botrytis cinerea): H (more than 50% control value) | Test A control value class (Magnaporthe grisea): H (more than 50% control value) | Test E control value class (Puccinia recondita): L (50% or less control value) | Test F control value class (Phytophthora infestans): L (50% or less control value) | Test C control value class (Alternaia brassicicola): H (more than 50% control value) | Test H control value class [2]: H (more than 50% control value) | Test G control value class (Plasmopara viticola): H (more than 50% control value)

CCn1c(-c2c(F)cc(F)cc2F)c(C(C)(C)OC)cc(Cl)c1=O [compound 109]
Test D control value class [1]: H (more than 50% control value) | Test B control value class (Botrytis cinerea): H (more than 50% control value) | Test A control value class (Magnaporthe grisea): H (more than 50% control value) | Test E control value class (Puccinia recondita): H (more than 50% control value) | Test F control value class (Phytophthora infestans): L (50% or less control value) | Test C control value class (Alternaia brassicicola): H (more than 50% control value) | Test H control value class [2]: H (more than 50% control value) | Test G control value class (Plasmopara viticola): L (50% or less control value)

CCn1c(-c2ccc(OC)cc2F)c(CC(C)C)ccc1=O [compound 111]
Test D control value class [1]: H (more than 50% control value) | Test B control value class (Botrytis cinerea): H (more than 50% control value) | Test A control value class (Magnaporthe grisea): H (more than 50% control value) | Test E control value class (Puccinia recondita): H (more than 50% control value) | Test F control value class (Phytophthora infestans): L (50% or less control value) | Test C control value class (Alternaia brassicicola): H (more than 50% control value) | Test H control value class [2]: H (more than 50% control value) | Test G control value class (Plasmopara viticola): H (more than 50% control value)

CCn1c(-c2c(F)cc(F)cc2F)c(CNOC)cc(Cl)c1=O [compound 112]
Test D control value class [1]: H (more than 50% control value) | Test B control value class (Botrytis cinerea): H (more than 50% control value) | Test A control value class (Magnaporthe grisea): L (50% or less control value) | Test E control value class (Puccinia recondita): H (more than 50% control value) | Test F control value class (Phytophthora infestans): L (50% or less control value) | Test C control value class (Alternaia brassicicola): H (more than 50% control value) | Test H control value class [2]: H (more than 50% control value) | Test G control value class (Plasmopara viticola): L (50% or less control value)

CCn1c(-c2c(F)cc(OC)cc2F)c(C(C)(C)OC)cc(Cl)c1=O [compound 113]
Test D control value class [1]: L (50% or less control value) | Test B control value class (Botrytis cinerea): H (more than 50% control value) | Test A control value class (Magnaporthe grisea): H (more than 50% control value) | Test E control value class (Puccinia recondita): H (more than 50% control value) | Test F control value class (Phytophthora infestans): L (50% or less control value) | Test C control value class (Alternaia brassicicola): H (more than 50% control value) | Test H control value class [2]: H (more than 50% control value) | Test G control value class (Plasmopara viticola): L (50% or less control value)

CCn1c(-c2c(F)cc(OC)cc2F)c(CNOC)cc(Cl)c1=O [compound 114]
Test D control value class [1]: H (more than 50% control value) | Test B control value class (Botrytis cinerea): H (more than 50% control value) | Test A control value class (Magnaporthe grisea): L (50% or less control value) | Test E control value class (Puccinia recondita): H (more than 50% control value) | Test F control value class (Phytophthora infestans): L (50% or less control value) | Test C control value class (Alternaia brassicicola): H (more than 50% control value) | Test H control value class [2]: H (more than 50% control value) | Test G control value class (Plasmopara viticola): L (50% or less control value)

CCn1c(-c2ccc(OC)cc2F)c(CC(C)C)cc(Cl)c1=O [compound 115]
Test D control value class [1]: H (more than 50% control value) | Test B control value class (Botrytis cinerea): H (more than 50% control value) | Test A control value class (Magnaporthe grisea): H (more than 50% control value) | Test E control value class (Puccinia recondita): H (more than 50% control value) | Test F control value class (Phytophthora infestans): L (50% or less control value) | Test C control value class (Alternaia brassicicola): H (more than 50% control value) | Test H control value class [2]: H (more than 50% control value) | Test G control value class (Plasmopara viticola): L (50% or less control value)

CCn1c(-c2ccc(OC)cc2F)c(CC(C)C)cc(Br)c1=O [compound 116]
Test D control value class [1]: H (more than 50% control value) | Test B control value class (Botrytis cinerea): H (more than 50% control value) | Test A control value class (Magnaporthe grisea): H (more than 50% control value) | Test E control value class (Puccinia recondita): H (more than 50% control value) | Test F control value class (Phytophthora infestans): L (50% or less control value) | Test C control value class (Alternaia brassicicola): H (more than 50% control value) | Test H control value class [2]: H (more than 50% control value) | Test G control value class (Plasmopara viticola): H (more than 50% control value)

CCn1c(-c2ccc(F)cc2F)c(CC(C)C)ccc1=O [compound 117]
Test D control value class [1]: H (more than 50% control value) | Test B control value class (Botrytis cinerea): H (more than 50% control value) | Test A control value class (Magnaporthe grisea): H (more than 50% control value) | Test E control value class (Puccinia recondita): H (more than 50% control value) | Test F control value class (Phytophthora infestans): L (50% or less control value) | Test C control value class (Alternaia brassicicola): H (more than 50% control value) | Test H control value class [2]: H (more than 50% control value) | Test G control value class (Plasmopara viticola): L (50% or less control value)

CCn1c(-c2ccc(O)cc2F)c(CC(C)C)cc(Cl)c1=O [compound 118]
Test D control value class [1]: L (50% or less control value) | Test B control value class (Botrytis cinerea): H (more than 50% control value) | Test A control value class (Magnaporthe grisea): L (50% or less control value) | Test E control value class (Puccinia recondita): H (more than 50% control value) | Test F control value class (Phytophthora infestans): L (50% or less control value) | Test C control value class (Alternaia brassicicola): H (more than 50% control value) | Test H control value class [2]: L (50% or less control value) | Test G control value class (Plasmopara viticola): L (50% or less control value)
